This note sets out measurements from patent US11124488B2, “Preparation of 2-([1,2,3]triazol-2-yl)-benzoic acid derivatives” (IDORSIA PHARMACEUTICALS LTD, priority 2017, dated 2021).

SMILES strings stand for the structures.

One may read the melting point as the temperature, or range, at which the solid turns liquid. In turn, `COc1ccc(-n2nccn2)c(C(=O)N2CCC[C@@]2(C)C(=O)O)c1` [Reference Example 4.2, (S)-1-(5-methoxy-2-(2H-1,2,3-triazol-2-yl)benzoyl)-2-methylpyrrolidine-2-carboxylic acid] registered a melting point of 178 °C.
Take `COc1ccc(-n2nccn2)c(C(=O)N2CCC[C@@]2(C)C(=O)Nc2ccc(Cl)c(C)c2N)c1` [Reference Example 4.3, (S)—N-(2-amino-4-chloro-3-methylphenyl)-1-(5-methoxy-2-(2H-1,2,3-triazol-2-yl)benzoyl)-2 methylpyrrolidine-2-carboxamide]: the melting point was determined as 185 °C.
